For 15 molecules, Emax and EC50 results are on record in US20240208992A1, “MACROCYCLES AS CFTR MODULATORS” (Idorsia Pharmaceuticals Ltd, priority 2021, published 2024).

Structures are written as SMILES.

The target in this assay is human F508del-CFTR (Homo sapiens, UniProt P13569, DEL508-508). Put plainly: F508del-CFTR cell surface expression (corrector activity), DiscoveRx ß-galactosidase complementation chemiluminescence assay in recombinant U2OS cell line.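 As to all read-outs here: U2OS cells co-expressing ProLink-tagged F508del-CFTR and a membrane-anchored enzyme acceptor, where more surface CFTR restores β-galactosidase activity measured by chemiluminescence.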 The conditions noted are these: for Emax: arithmetic mean values; for EC50: EC50, F508del-CFTR cell surface expression, geomean values.
Sequence of human F508del-CFTR (P13569 with tags, fused parts or gaps DEL508-508): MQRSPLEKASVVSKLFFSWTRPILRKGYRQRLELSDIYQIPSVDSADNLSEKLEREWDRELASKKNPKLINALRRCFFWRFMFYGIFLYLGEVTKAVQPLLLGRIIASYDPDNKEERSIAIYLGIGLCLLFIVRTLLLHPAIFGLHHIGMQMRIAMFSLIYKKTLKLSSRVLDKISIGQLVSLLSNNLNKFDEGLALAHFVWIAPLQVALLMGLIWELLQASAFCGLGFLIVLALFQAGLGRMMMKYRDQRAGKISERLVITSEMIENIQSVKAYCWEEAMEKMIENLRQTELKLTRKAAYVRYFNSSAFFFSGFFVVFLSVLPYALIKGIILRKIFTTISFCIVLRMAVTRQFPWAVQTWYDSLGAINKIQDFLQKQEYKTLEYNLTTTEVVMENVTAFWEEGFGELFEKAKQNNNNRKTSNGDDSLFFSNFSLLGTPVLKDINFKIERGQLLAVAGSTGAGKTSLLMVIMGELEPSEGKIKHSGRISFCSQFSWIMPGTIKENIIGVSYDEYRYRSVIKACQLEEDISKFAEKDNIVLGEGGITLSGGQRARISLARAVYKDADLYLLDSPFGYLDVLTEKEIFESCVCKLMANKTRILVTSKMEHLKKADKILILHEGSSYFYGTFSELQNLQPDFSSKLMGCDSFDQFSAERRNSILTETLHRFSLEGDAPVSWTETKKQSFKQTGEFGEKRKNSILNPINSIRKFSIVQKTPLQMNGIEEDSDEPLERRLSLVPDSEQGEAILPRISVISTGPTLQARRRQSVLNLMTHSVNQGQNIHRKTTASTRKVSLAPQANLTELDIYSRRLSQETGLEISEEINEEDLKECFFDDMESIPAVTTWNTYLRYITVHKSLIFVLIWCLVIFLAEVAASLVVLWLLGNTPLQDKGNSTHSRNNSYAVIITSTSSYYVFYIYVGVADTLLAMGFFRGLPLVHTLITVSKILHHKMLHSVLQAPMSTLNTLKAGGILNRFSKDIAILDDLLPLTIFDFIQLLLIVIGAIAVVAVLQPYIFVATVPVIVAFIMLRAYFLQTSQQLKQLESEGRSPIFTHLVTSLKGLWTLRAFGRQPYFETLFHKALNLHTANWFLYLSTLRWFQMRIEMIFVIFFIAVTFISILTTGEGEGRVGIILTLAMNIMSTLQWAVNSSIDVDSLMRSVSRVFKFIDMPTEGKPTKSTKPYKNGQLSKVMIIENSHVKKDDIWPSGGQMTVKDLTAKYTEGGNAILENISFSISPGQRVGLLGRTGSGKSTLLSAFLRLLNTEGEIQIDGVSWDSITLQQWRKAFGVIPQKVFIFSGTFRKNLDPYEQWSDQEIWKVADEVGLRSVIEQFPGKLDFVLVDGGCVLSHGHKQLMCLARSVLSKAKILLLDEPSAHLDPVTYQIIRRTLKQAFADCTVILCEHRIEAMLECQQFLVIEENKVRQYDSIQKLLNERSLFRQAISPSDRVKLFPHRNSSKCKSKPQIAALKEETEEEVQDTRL
The mark [1] stands for this setting: U2OS, in relation to the Emax of the corrector lumacaftor (=100%), U2OS cell line, 16h compound incubation.
Where [2] appears, read: in relation to the Emax of the corrector lumacaftor (=100%), U2OS cell line, 16h compound incubation.
Where [3] appears, read: U2OS cell line, 16h compound incubation.

As to `CN1C(=O)C[C@@H](C(=O)NCCc2ccc3c(c2)OCO3)NC(=O)c2c(ccc3ccccc23)OC[C@@H](Cc2ccccc2)NC(=O)CN(CCC2CCCCC2)C(=O)[C@@H]1CC1CCC1` (racemic) [Example 292, (3RS,7S,13R)-N-(2-(benzo[d][1,3]dioxol-5-yl)ethyl)-13-benzyl-7-(cyclobutylmethyl)-9-(2-cyclohexylethyl)-6-methyl-1,5,8,11-tetraoxo-1,2,3,4,5,6,7,8,9,10,11,12,13,14-tetradecahydronaphtho[1,2-p][1]oxa[4,7,10,14]tetraazacycloheptadecine-3-carboxamide], under setting [1], the Emax came to 191%.

For the molecule `COc1cccc(CCNC(=O)[C@@H]2CC(=O)N(C)[C@@H](CC3CCCC3)C(=O)N(C[C@@H]3CCCCO3)CC(=O)N[C@H](Cc3ccccc3)COc3ccc4ccccc4c3C(=O)N2)c1` (racemic) [Example 293, (3RS,7S,13R)-13-benzyl-7-(cyclopentylmethyl)-N-(3-methoxyphenethyl)-6-methyl-1,5,8,11-tetraoxo-9-(((S)-tetrahydro-2H-pyran-2-yl)methyl)-1,2,3,4,5,6,7,8,9,10,11,12,13,14-tetradecahydronaphtho[1,2-p][1]oxa[4,7,10,14]tetraazacycloheptadecine-3-carboxamide], the Emax under setting [2] turned out to be 137%.

Consider `COc1cccc(CCNC(=O)[C@@H]2CC(=O)N(C)[C@@H](CC3CCCCC3)C(=O)N(C[C@@H]3CCCCO3)CC(=O)N[C@H](Cc3ccccc3)COc3ccc4ccccc4c3C(=O)N2)c1` (racemic) [Example 294, (3RS,7S,13R)-13-benzyl-7-(cyclohexylmethyl)-N-(3-methoxyphenethyl)-6-methyl-1,5,8,11-tetraoxo-9-(((S)-tetrahydro-2H-pyran-2-yl)methyl)-1,2,3,4,5,6,7,8,9,10,11,12,13,14-tetradecahydronaphtho[1,2-p][1]oxa[4,7,10,14]tetraazacycloheptadecine-3-carboxamide], for which the EC50 under setting [3] was found to be 0.265 µM. Moreover, under setting [1], the Emax amounted to 138%.

As to `COc1cccc(CCNC(=O)[C@@H]2CC(=O)N(C)[C@@H](CC3CCCC3)C(=O)N(C[C@@H]3CCCCO3)CC(=O)N[C@H](Cc3ccccc3)COc3ccc4ccccc4c3C(=O)N2)c1` (racemic) [Example 295, (3RS,7S,13R)-13-benzyl-7-(cyclopentylmethyl)-N-(3-methoxyphenethyl)-6-methyl-1,5,8,11-tetraoxo-9-(((R)-tetrahydro-2H-pyran-2-yl)methyl)-1,2,3,4,5,6,7,8,9,10,11,12,13,14-tetradecahydronaphtho[1,2-p][1]oxa[4,7,10,14]tetraazacycloheptadecine-3-carboxamide], the Emax under setting [2] is 174%.

As to `COc1cccc(CCNC(=O)[C@@H]2CC(=O)N(C)[C@@H](CC3CCCCC3)C(=O)N(C[C@H]3CCCCO3)CC(=O)N[C@H](Cc3ccccc3)COc3ccc4ccccc4c3C(=O)N2)c1` (racemic) [Example 296, (3RS,7S,13R)-13-benzyl-7-(cyclohexylmethyl)-N-(3-methoxyphenethyl)-6-methyl-1,5,8,11-tetraoxo-9-(((R)-tetrahydro-2H-pyran-2-yl)methyl)-1,2,3,4,5,6,7,8,9,10,11,12,13,14-tetradecahydronaphtho[1,2-p][1]oxa[4,7,10,14]tetraazacycloheptadecine-3-carboxamide], the Emax under setting [1] was determined as 144%.

Turning to `COc1cccc(CCNC(=O)[C@@H]2CC(=O)N(C)[C@@H](CC(C)C)C(=O)N(CC[C@H]3CCCCO3)CC(=O)N[C@H](Cc3ccccc3)COc3ccc4ccccc4c3C(=O)N2)c1` (racemic) [Example 297, (3RS,7S,13R)-13-benzyl-7-isobutyl-N-(3-methoxyphenethyl)-6-methyl-1,5,8,11-tetraoxo-9-(2-((SR)-tetrahydro-2H-pyran-2-yl)ethyl)-1,2,3,4,5,6,7,8,9,10,11,12,13,14-tetradecahydronaphtho[1,2-p][1]oxa[4,7,10,14]tetraazacycloheptadecine-3-carboxamide], the EC50 under setting [3] worked out at 0.193 µM. The Emax under setting [1] worked out at 225%.

Regarding `COc1cccc(CCNC(=O)[C@@H]2CC(=O)N(C)[C@@H](CC3CCCC3)C(=O)N(CC[C@H]3CCCCO3)CC(=O)N[C@H](Cc3ccccc3)COc3ccc4ccccc4c3C(=O)N2)c1` (racemic) [Example 298, (3RS,7S,13R)-13-benzyl-7-(cyclopentylmethyl)-N-(3-methoxyphenethyl)-6-methyl-1,5,8,11-tetraoxo-9-(2-((SR)-tetrahydro-2H-pyran-2-yl)ethyl)-1,2,3,4,5,6,7,8,9,10,11,12,13,14-tetradecahydronaphtho[1,2-p][1]oxa[4,7,10,14]tetraazacycloheptadecine-3-carboxamide], the half-maximal effective concentration (EC50) under setting [3] came to 0.22 µM. In addition, the Emax under setting [1] is 186%.

For the molecule `COc1cccc(CCNC(=O)[C@@H]2CC(=O)N(C)[C@@H](CC3CCCCC3)C(=O)N(CC[C@H]3CCCCO3)CC(=O)N[C@H](Cc3ccccc3)COc3ccc4ccccc4c3C(=O)N2)c1` (racemic) [Example 299, (3RS,7S,13R)-13-benzyl-7-(cyclohexylmethyl)-N-(3-methoxyphenethyl)-6-methyl-1,5,8,11-tetraoxo-9-(2-((SR)-tetrahydro-2H-pyran-2-yl)ethyl)-1,2,3,4,5,6,7,8,9,10,11,12,13,14-tetradecahydronaphtho[1,2-p][1]oxa[4,7,10,14]tetraazacycloheptadecine-3-carboxamide], the EC50 under setting [3] stood at 0.109 µM. The Emax under setting [1] was 136%.

With `COc1cccc(CCNC(=O)[C@@H]2CC(=O)N(C)[C@@H](CC3CCCC3)C(=O)N(CCC3CCCCC3)CC(=O)N[C@H](Cc3ccccc3)COc3ccc4ccccc4c3C(=O)N2)c1` (racemic) [Example 300, (3RS,7S,13R)-13-benzyl-9-(2-cyclohexylethyl)-7-(cyclopentylmethyl)-N-(3-methoxyphenethyl)-6-methyl-1,5,8,11-tetraoxo-1,2,3,4,5,6,7,8,9,10,11,12,13,14-tetradecahydronaphtho[1,2-p][1]oxa[4,7,10,14]tetraazacycloheptadecine-3-carboxamide], the Emax under setting [1] stood at 210%.

On to `COc1cccc(CCNC(=O)[C@@H]2CC(=O)N(C)[C@@H](CC3CCCCC3)C(=O)N(CCC3CCCCC3)CC(=O)N[C@H](Cc3ccccc3)COc3ccc4ccccc4c3C(=O)N2)c1` (racemic) [Example 301, (3RS,7S,13R)-13-benzyl-9-(2-cyclohexylethyl)-7-(cyclohexylmethyl)-N-(3-methoxyphenethyl)-6-methyl-1,5,8,11-tetraoxo-1,2,3,4,5,6,7,8,9,10,11,12,13,14-tetradecahydronaphtho[1,2-p][1]oxa[4,7,10,14]tetraazacycloheptadecine-3-carboxamide], for which, under setting [1], the Emax stood at 202%.

For `COc1cccc(CCNC(=O)[C@@H]2CC(=O)N(C)[C@@H](CC3CCC3)C(=O)N(CCC3CCCCC3)CC(=O)N[C@H](Cc3ccccc3)COc3ccc4ccccc4c3C(=O)N2)c1` (racemic) [Example 302, (3RS,7S,13R)-13-benzyl-7-(cyclobutylmethyl)-9-(2-cyclohexylethyl)-N-(3-methoxyphenethyl)-6-methyl-1,5,8,11-tetraoxo-1,2,3,4,5,6,7,8,9,10,11,12,13,14-tetradecahydronaphtho[1,2-p][1]oxa[4,7,10,14]tetraazacycloheptadecine-3-carboxamide], the EC50 under setting [3] was found to be 0.106 µM. For the same molecule, the Emax under setting [1] amounted to 193%.

Consider `COc1cccc(CCNC(=O)[C@@H]2CC(=O)N(C)[C@@H](CC(C)C)C(=O)N(CCC3CCCCC3)CC(=O)N[C@H](Cc3ccccc3)COc3ccc4ccccc4c3C(=O)N2)c1` (racemic) [Example 303, (3RS,7S,13R)-13-benzyl-9-(2-cyclohexylethyl)-7-isobutyl-N-(3-methoxyphenethyl)-6-methyl-1,5,8,11-tetraoxo-1,2,3,4,5,6,7,8,9,10,11,12,13,14-tetradecahydronaphtho[1,2-p][1]oxa[4,7,10,14]tetraazacycloheptadecine-3-carboxamide], for which the EC50 under setting [3] was 0.18 µM. Also, under setting [1], the Emax turned out to be 275%.

As to `COc1cccc2c1C(=O)N[C@H](C(=O)NCCc1ccc3c(c1)OCO3)CC(=O)N(C)[C@@H](CC(C)C)C(=O)N(CC[C@H]1CCCCO1)CC(=O)N[C@H](Cc1ccccc1)CO2` (racemic) [Example 304, (3R,9S,13S)-N-(2-(benzo[d][1,3]dioxol-5-yl)ethyl)-3-benzyl-9-isobutyl-16-methoxy-10-methyl-5,8,11,15-tetraoxo-7-(2-((RS)-tetrahydro-2H-pyran-2-yl)ethyl)-2,3,4,5,6,7,8,9,10,11,12,13,14,15-tetradecahydrobenzo[p][1]oxa[4,7,10,14]tetraazacycloheptadecine-13-carboxamide], the EC50 under setting [3] turned out to be 0.581 µM. For the same molecule, under setting [1], the Emax is 193%.

As for `COc1cccc(CCNC(=O)[C@@H]2CC(=O)N(C)[C@@H](CC(C)C)C(=O)N(CC[C@H]3CCCCO3)CC(=O)N[C@H](Cc3ccccc3)COc3cccc(OC)c3C(=O)N2)c1` (racemic) [Example 310], under setting [3], the EC50 was determined as 0.788 µM. Under setting [1], the Emax was 202%.

With `COc1cccc(CCNC(=O)[C@@H]2CC(=O)N(C)[C@@H](CC(C)C)C(=O)N(C)[C@@H](CO)C(=O)N[C@H](Cc3ccccc3)COc3ccc4ccccc4c3C(=O)N2)c1` (racemic) [Example 718, (3S,7S,10RS,13R)-13-benzyl-10-(hydroxymethyl)-7-isobutyl-N-(3-methoxyphenethyl)-6,9-dimethyl-1,5,8,11-tetraoxo-1,2,3,4,5,6,7,8,9,10,11,12,13,14-tetradecahydronaphtho[1,2-p][1]oxa[4,7,10,14]tetraazacycloheptadecine-3-carboxamide], the Emax (U2OS, in relation to Emax of corrector lumacaftor (=100%)) was found to be 272%.
